Source: publication PMC11768629, “Potential Interaction of Pinocembrin with Drug Transporters and Hepatic Drug-Metabolizing Enzymes” (Pharmaceuticals, 2025)

Assays:
CYP2D6 = test system: CYP2D6; set-up: method as in PMID 34069400, doi:10.5562/cca3652, PMID 26626242; settings: cited from earlier work
hOAT3 = molecular target: T1, hOAT3 (Homo sapiens, UniProt Q8TCC7); experiment: hOAT3-mediated 6-CF uptake in hOAT3-MDCK cells (inhibitory potency and kinetics); type: cell-based
T1 construct: host or cells: MDCK
T1 sequence (Q8TCC7 1-542): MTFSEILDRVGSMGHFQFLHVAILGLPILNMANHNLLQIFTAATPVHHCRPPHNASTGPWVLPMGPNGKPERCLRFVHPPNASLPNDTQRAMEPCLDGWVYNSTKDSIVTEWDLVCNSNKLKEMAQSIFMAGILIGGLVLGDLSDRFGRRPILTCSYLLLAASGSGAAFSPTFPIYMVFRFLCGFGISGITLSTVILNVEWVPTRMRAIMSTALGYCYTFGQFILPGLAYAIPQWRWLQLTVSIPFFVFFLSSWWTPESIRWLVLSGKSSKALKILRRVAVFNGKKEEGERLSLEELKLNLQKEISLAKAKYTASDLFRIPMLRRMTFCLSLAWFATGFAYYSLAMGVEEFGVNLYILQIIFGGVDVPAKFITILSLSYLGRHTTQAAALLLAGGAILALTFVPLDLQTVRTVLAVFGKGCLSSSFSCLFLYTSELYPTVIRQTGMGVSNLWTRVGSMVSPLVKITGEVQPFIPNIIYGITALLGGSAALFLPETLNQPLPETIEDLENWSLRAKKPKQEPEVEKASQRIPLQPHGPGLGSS
Protocol: (§1) To determine the inhibitory potency of pinocembrin on the hOAT1 and hOAT3 function, the IC50 of pinocembrin on the hOAT1- and hOAT3-mediated uptake of 6-carboxyfluorescein (6-CF), a fluorescent substrate of hOAT1 and hOAT3, was determined. […] Next, the inhibitory mechanism of pinocembrin was determined using a kinetic study.
(§2) The hOAT1-MDCK and hOAT3-MDCK cell monolayers were incubated at 37 °C with an uptake buffer containing 6-CF (10 µM), a fluorescent substrate of hOAT1 and hOAT3 [12], and pinocembrin (0–50 µM) for 10 min. Uptake was terminated by removing the uptake solution and washing four times with a cold buffer. The cell monolayers were lysed with 0.4 N NaOH for 30 min. The samples were transferred to 96-black well plates to measure the fluorescence intensity using a fluorescent plate reader (EnVision XCite 2105 Multimode Plate Reader, Packard BioScience, Wellesley, MA, USA) at excitation and emission wavelengths of 490 and 510, respectively. The IC50 of pinocembrin on hOAT1- and hOAT3-mediated 6-CF uptake was calculated in GraphPad Prism using sigmoidal concentration–response analysis using the equation Y = 100/(IC50/X)^HillSlope (X is the concentration, while Y is the normalized response). In addition, the estimated inhibitory constant (Ki) was calculated using the Cheng–Prusoff equation.
(§3) The hOAT1-MDCK and hOAT3-MDCK cell monolayers were incubated with 6-CF at increasing concentrations (0 to 100 µM) and in the absence or presence of 5 µM pinocembrin for 10 min. The kinetic parameters of 6-CF transport by hOAT1 and hOAT3 in the presence of pinocembrin were determined using nonlinear regression analysis to fit the Michaelis–Menten kinetic equation: V=Vmax[S]/Km+[S] where V is the rate of 6-CF transport, Vmax is the maximum rate of 6-CF transport, Km is the 6-CF concentration that results in half the maximum transport (Michaelis–Menten constant), and [S] is the concentration of 6-CF in the transport reaction.

BCRP = molecular target: T2, BCRP (Homo sapiens, UniProt Q9UNQ0); experiment: BCRP-mediated 3H-estrone sulfate transepithelial transport in Caco-2 cell monolayers; type: cell-based; settings: pinocembrin, compared with vehicle control
T2 construct: Caco-2 cell monolayers, which express both P-gp and BCRP; host or cells: Caco-2
Protocol: The interactions of pinocembrin with P-gp and BCRP were determined by the measurement of P-gp-mediated ^3H-digoxin transport and BCRP-mediated ^3H-estrone sulfate transport in Caco-2 cell monolayers, which express both P-gp and BCRP [20].
P-gp- and BCRP-mediated transport were measured by the transepithelial transport of their substrates (^3H-digoxin for P-gp and ^3H-estrone sulfate for BCRP) in Caco-2 cell monolayers. […] Caco-2 cells were cultured on membrane inserts (Corning Inc., Corning, NY, USA) for 21 days. Cell monolayers showing transepithelial electrical resistance values > 600 Ω.cm^2 were included in the experiment. […] The basolateral side was replaced with a transport buffer. The sample from the basolateral side was transferred to vials containing a liquid scintillation cocktail to measure radioactivity by a β-counter (Packard BioScience, Wellesley, MA, USA).

hOAT1 = molecular target: T3, hOAT1 (Homo sapiens, UniProt Q4U2R8); experiment: hOAT1-mediated 6-CF uptake in hOAT1-MDCK cells (inhibitory potency and kinetics); type: cell-based
T3 construct: host or cells: MDCK
T3 sequence (Q4U2R8 1-563): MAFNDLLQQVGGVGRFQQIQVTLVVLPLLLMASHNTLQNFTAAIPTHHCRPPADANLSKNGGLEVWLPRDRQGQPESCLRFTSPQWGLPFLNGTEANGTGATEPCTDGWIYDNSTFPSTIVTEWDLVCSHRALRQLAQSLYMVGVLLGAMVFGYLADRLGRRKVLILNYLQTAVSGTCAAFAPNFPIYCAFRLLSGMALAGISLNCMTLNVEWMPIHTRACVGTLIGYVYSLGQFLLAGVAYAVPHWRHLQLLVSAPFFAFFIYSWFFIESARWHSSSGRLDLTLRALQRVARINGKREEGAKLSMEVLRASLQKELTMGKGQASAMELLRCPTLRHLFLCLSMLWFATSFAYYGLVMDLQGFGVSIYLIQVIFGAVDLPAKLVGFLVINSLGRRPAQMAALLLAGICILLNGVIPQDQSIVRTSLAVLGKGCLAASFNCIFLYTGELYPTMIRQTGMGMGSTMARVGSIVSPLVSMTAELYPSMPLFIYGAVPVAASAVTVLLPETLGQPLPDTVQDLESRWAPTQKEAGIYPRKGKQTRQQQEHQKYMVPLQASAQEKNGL
Protocol: as §1, §2, §3

[1] = kinetic study, 5 μM pinocembrin: Km increased, Vmax unchanged

T2 sequence (Q9UNQ0 whole entry): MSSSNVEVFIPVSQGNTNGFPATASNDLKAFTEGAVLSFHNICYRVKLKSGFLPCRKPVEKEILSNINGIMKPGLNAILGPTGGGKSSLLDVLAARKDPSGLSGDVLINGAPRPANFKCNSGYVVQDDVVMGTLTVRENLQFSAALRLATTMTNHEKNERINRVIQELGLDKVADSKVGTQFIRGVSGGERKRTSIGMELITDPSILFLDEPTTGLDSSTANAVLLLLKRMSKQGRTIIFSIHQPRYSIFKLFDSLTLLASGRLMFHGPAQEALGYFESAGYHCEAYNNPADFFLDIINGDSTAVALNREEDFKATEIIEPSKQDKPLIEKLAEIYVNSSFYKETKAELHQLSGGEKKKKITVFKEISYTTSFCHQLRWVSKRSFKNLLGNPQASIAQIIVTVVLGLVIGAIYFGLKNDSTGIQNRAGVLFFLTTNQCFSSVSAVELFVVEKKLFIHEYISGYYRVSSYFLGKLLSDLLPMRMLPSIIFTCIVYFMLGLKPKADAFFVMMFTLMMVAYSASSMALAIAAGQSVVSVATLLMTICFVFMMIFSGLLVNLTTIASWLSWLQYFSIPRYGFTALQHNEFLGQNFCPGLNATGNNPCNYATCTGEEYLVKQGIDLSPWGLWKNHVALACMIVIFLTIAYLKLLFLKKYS

- Vmax of hOAT3-mediated 6-CF uptake, With Pinocembrin (hOAT3; 5 μM pinocembrin, 6-CF up to 100 μM, hOAT3-MDCK cells): 11.32 ± 2.33 nmol/min/cm^2
- IC50 (hOAT3; hOAT3-MDCK cells, 6-CF 10 µM, mean ± S.D., three experiments): 2380 ± 980 nM
- Ki (hOAT3; hOAT3-MDCK cells, estimated with the Cheng–Prusoff equation): 1300 ± 240 nM
- inhibitory mechanism on hOAT3 transport function (hOAT3; [1]): competitively
- transport of 3H-estrone sulfate from the apical to basolateral side (BCRP): did not affect
- Vmax of hOAT1-mediated 6-CF uptake, With Pinocembrin (hOAT1; 5 μM pinocembrin, 6-CF up to 100 μM, hOAT1-MDCK cells): 6.03 ± 1.02 nmol/min/cm^2
- IC50 (hOAT1; hOAT1-MDCK cells, 6-CF 10 µM, mean ± S.D., three experiments): 1470 ± 870 nM
- Ki (hOAT1; hOAT1-MDCK cells, estimated with the Cheng–Prusoff equation): 810 ± 120 nM
- inhibitory mechanism on hOAT1 transport function (hOAT1; [1]): competitively
SMILES: O=C1C[C@@H](c2ccccc2)Oc2cc(O)cc(O)c21 [pinocembrin]
- effect on the activity of CYP2D6 (CYP2D6): inhibits the activities
